Experimental data taken from BindingDB's records for doi:10.1016/j.bmcl.2007.05.064 (Sungkyunkwan University, 2007).

Biological target: cGMP-specific 3',5'-cyclic phosphodiesterase (Homo sapiens, UniProt O76074)
Experiment: Inhibition of PDE5

## CCCc1nn(C)c2c(=O)[nH]c(-c3cc(S(=O)(=O)N4CCN(C)CC4)cc4c3OCO4)nc12
  IC50: 426 nM
